Experimental findings from patent US20240309043A1, “THERAPEUTICALLY ACTIVE STEROIDAL DERIVATIVES” (Organon R&D Finland Ltd., priority 2017, published 2024) are described below.

Assay type in all cases: biochemical
For assay [1], the system named is HSD1 enzyme that is expressed in rabbit placenta tissue. Briefly: Inhibition of E1 to E2 conversion in rabbit placenta tissue homogenate. Particulars: inhibitor 100 nM, 30 nM estrone, 30 min.
The target in assay [2] is T1, recombinant human 17β-HSD1 (Homo sapiens, UniProt P14061).
T1 construct: made in house; host or cells: Sd9 (Sf9) insect cells, baculovirus (Bac to Bac Expression System)
T1 sequence (P14061 1-328): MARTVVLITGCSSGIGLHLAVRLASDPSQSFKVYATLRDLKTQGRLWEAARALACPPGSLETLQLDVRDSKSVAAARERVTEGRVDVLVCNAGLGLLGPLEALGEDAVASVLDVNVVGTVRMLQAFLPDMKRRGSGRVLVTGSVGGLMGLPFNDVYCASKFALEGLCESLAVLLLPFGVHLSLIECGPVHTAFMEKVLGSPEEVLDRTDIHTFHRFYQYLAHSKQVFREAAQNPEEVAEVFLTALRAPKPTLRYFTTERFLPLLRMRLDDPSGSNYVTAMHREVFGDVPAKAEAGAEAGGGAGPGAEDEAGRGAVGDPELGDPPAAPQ
Briefly: Inhibition of recombinant human 17β-HSD1. Particulars: inhibitor 100 nM; 30 nM estrone, 1 mM NADPH, 30 min RT. The gist of the method: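 Microsomes from Sf9 cells expressing human 17β-HSD1 (1 μg/ml) were incubated for 30 min at RT in 20 mM KH2PO4 pH 7.4 with 30 nM ³H-estrone, 1 mM NADPH and inhibitor at 1 μM or 0.1 μM (1% DMSO). Estrone-to-estradiol conversion was measured by radio-HPLC after TCA stop, and % inhibition was taken as 100 − % conversion.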

The target in assay [3] is T2, recombinant human 17β-HSD2 (Homo sapiens, UniProt P37059).
T2 construct: made in house; host or cells: Sd9 (Sf9) insect cells, baculovirus (Bac to Bac Expression System)
T2 sequence (P37059 1-387): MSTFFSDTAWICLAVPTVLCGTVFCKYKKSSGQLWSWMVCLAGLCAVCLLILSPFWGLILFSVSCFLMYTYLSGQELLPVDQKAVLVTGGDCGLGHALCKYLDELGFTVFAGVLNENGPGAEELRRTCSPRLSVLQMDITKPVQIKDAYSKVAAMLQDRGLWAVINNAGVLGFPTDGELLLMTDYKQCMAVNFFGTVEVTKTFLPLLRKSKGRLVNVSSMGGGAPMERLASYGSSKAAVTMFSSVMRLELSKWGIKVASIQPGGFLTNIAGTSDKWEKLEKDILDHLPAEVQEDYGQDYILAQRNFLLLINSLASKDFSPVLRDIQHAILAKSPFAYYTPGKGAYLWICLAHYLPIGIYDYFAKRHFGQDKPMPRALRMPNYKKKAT
Put plainly: Inhibition of recombinant human 17β-HSD2. Particulars: inhibitor 1 μM; 50 nM estradiol, 1 mM NADH, 30 min RT. The gist of the method:
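Sf9 baculovirus-expressed enzyme membrane extract (4 μg/ml) incubated 30 min at RT in 20 mM KH2PO4 pH 8.5 with 50 nM estradiol (³H-tracer) and 1 mM NADH, inhibitor at 1 μM or 0.1 μM, 1% DMSO. TCA-stopped; estradiol-to-estrone conversion by radio-HPLC, % inhibition = 100 − % conversion.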

Turning to `CN(C)C(=O)CC[C@@H]1C/C(=N\O)[C@@]2(C)CCC3c4cccc(F)c4CCC3C12` (stereo partly drawn) [Compound 120, 3-((13S,15R,E)-4-fluoro-17-(hydroxyimino)-13-methyl-7,8,9,11,12,13,14,15,16,17-decahydro-6H-cyclopenta[a]phenanthren-15-yl)-N,N-dimethylpropanamide], in assay [1], the “Rabbit placenta inhibition % @100 nM” value is 9%. In addition, in assay [2], the inhibition at 0.1 µM is 57%. Also, the inhibition at 1 µM in assay [3] came out at 2%.
As for `C[C@]12CCC3c4ccc(Cl)cc4CCC3C1[C@H](CCC(=O)Nc1cnccn1)C/C2=N\O` (stereo partly drawn) [Compound 74, 3-((13S,15R,E)-3-chloro-17-(hydroxyimino)-13-methyl-7,8,9,11,12,13,14,15,16,17-decahydro-6H-cyclopenta[a]phenanthren-15-yl)-N-(pyrazin-2-yl)propanamide], in assay [1], the “Rabbit placenta inhibition % @100 nM” value is listed as 13%. In addition, the inhibition at 0.1 µM in assay [2] worked out at 27%. Also, the inhibition at 1 µM in assay [3] turned out to be 2%.
For the compound `Cc1ccnc(NC(=O)CC[C@@H]2C/C(=N\O)[C@@]3(C)CCC4c5ccc(Cl)cc5CCC4C23)c1` (stereo partly drawn) [Compound 70, 3-((13S,15R,E)-3-chloro-17-(hydroxyimino)-13-methyl-7,8,9,11,12,13,14,15,16,17-decahydro-6H-cyclopenta[a]phenanthren-15-yl)-N-(4-methylpyridin-2-yl)propanamide], in assay [1], the “Rabbit placenta inhibition % @100 nM” value is −7%. Besides, the inhibition at 0.1 µM in assay [2] was determined as 81%. Further, the inhibition at 1 µM in assay [3] is 4%.
Consider `CNC(=O)CC[C@@H]1C/C(=N\O)[C@@]2(C)CCC3c4cccc(F)c4CCC3C12` (stereo partly drawn) [Compound 118, 3-((13S,15R,E)-4-fluoro-17-(hydroxyimino)-13-methyl-7,8,9,11,12,13,14,15,16,17-decahydro-6H-cyclopenta[a]phenanthren-15-yl)-N-methylpropanamide], for which, in assay [1], the “Rabbit placenta inhibition % @100 nM” value is −1%. Besides, in assay [2], the inhibition at 0.1 µM was found to be 43%. In assay [3], the inhibition at 1 µM is 2%.
Consider `Cc1ccc(NC(=O)CC[C@@H]2C/C(=N\O)[C@@]3(C)CCC4c5ccc(Cl)cc5CCC4C23)nn1` (stereo partly drawn) [Compound 76, 3-((13S,15R,E)-3-chloro-17-(hydroxyimino)-13-methyl-7,8,9,11,12,13,14,15,16,17-decahydro-6H-cyclopenta[a]phenanthren-15-yl)-N-(6-methylpyridazin-3-yl)propanamide], for which, in assay [1], the “Rabbit placenta inhibition % @100 nM” value worked out at 56%. Also, the inhibition at 0.1 µM in assay [2] was 33%. Also, the inhibition at 1 µM in assay [3] is 4%.
`Cc1cccnc1NC(=O)CC[C@@H]1C/C(=N\O)[C@@]2(C)CCC3c4ccc(Cl)cc4CCC3C12` (stereo partly drawn) [Compound 60, 3-((13S,15R,E)-3-chloro-17-(hydroxyimino)-13-methyl-7,8,9,11,12,13,14,15,16,17-decahydro-6H-cyclopenta[a]phenanthren-15-yl)-N-(3-methylpyridin-2-yl)propanamide]: the “Rabbit placenta inhibition % @100 nM” value in assay [1] came out at 4%. For the same compound, the inhibition at 0.1 µM in assay [2] is 38%. The inhibition at 1 µM in assay [3] was found to be 2%.
Regarding `C[C@]12CCC3c4ccc(Cl)cc4CCC3C1[C@H](CCC(=O)Nc1ncc(F)cc1F)C/C2=N\O` (stereo partly drawn) [Compound 164, 3-((13S,15R,E)-3-chloro-17-(hydroxyimino)-13-methyl-7,8,9,11,12,13,14,15,16,17-decahydro-6H-cyclopenta[a]phenanthren-15-yl)-N-(3,5-difluoropyridin-2-yl)propanamide], the “Rabbit placenta inhibition % @100 nM” value in assay [1] turned out to be 5%. In addition, the inhibition at 0.1 µM in assay [2] was found to be 40%. In addition, the inhibition at 1 µM in assay [3] was 11%.
As to `COc1ccc(NC(=O)CC[C@@H]2C/C(=N\O)[C@@]3(C)CCC4c5ccc(Cl)cc5CCC4C23)nn1` (stereo partly drawn) [Compound 50, 3-((13S,15R,E)-3-chloro-17-(hydroxyimino)-13-methyl-7,8,9,11,12,13,14,15,16,17-decahydro-6H-cyclopenta[a]phenanthren-15-yl)-N-(6-methoxypyridazin-3-yl)propanamide], the “Rabbit placenta inhibition % @100 nM” value in assay [1] was found to be 42%. For the same compound, the inhibition at 0.1 µM in assay [2] is 37%. For the same compound, the inhibition at 1 µM in assay [3] was -2%.
